Like-named read-outs stand apart in the source and are kept apart here.
Legend:
[1] = test system: Herpes simplex 1; type: in vivo, NMRI mice; details: for Survivors: groups of 5 mice
Experimental: The treatment was performed twice daily, starting after the infection. The substances were administered to the experimental animals 5 or 9 times (see Table 1).
The chemotherapeutic action can be seen from Table 1.

[2] = in vitro; details: hela and vero cells
[3] = po 9 × 0 mg/kg (so in the source)

SMILES | Average survival time ([1]; po 5 × 2.5 mg/kg) [days] | Survivors ([1]; po 5 × 2.5 mg/kg) | Average survival time ([1]; po 5 × 25 mg/kg) [days] | Survivors ([1]; po 5 × 25 mg/kg) | Average survival time ([1]; sc 5 × 2.5 mg/kg) [days] | Survivors ([1]; sc 5 × 2.5 mg/kg) | Average survival time ([1]; sc 5 × 25 mg/kg) [days] | Survivors ([1]; sc 5 × 25 mg/kg) | Average survival time ([1]; sc 5 × 250 mg/kg) [days] | Survivors ([1]; sc 5 × 250 mg/kg) | further results
CCOP(=O)(Cc1ccc(Br)cc1)OCC [D, diethyl 4-bromobenzylphosphonate] | 7.0 | 2 | 6.0 | 3 | 8.5 | 3 | 8.0 | 4 |  |  | Average survival time ([1]; po 5 × 0.25 mg/kg): 8.7 days; Survivors ([1]; po 5 × 0.25 mg/kg): 2; Average survival time ([1]; po 9 × 3 mg/kg): 8.0 days; Survivors ([1]; po 9 × 3 mg/kg): 4; Average survival time ([1]; po 9 × 10 mg/kg): 8.3 days; Survivors ([1]; po 9 × 10 mg/kg): 2; Average survival time ([1]; po 9 × 30 mg/kg): 10.5 days; Survivors ([1]; po 9 × 30 mg/kg): 3; Average survival time ([1]; sc 5 × 0.25 mg/kg): 9.0 days; Survivors ([1]; sc 5 × 0.25 mg/kg): 1
CCOP(=O)(Cc1cc(C)ccc1C)OCC [K, diethyl 2,5-dimethylbenzylphosphonate] |  |  |  |  | 7.4 | 0 | 8.6 | 0 | 8.0 | 3 | 
COP(=O)(Cc1ccccc1C)OC [A, dimethyl 2-methylbenzylphosphonate] | 10.5 | 3 | 9.0 | 3 | 12.0 | 2 | 9.0 | 4 | 9.0 | 4 | 
Cc1ccccc1CP(=O)(O)O [O, di-triethylammonium 2-methylbenzylphosphonate] |  |  |  |  |  |  |  |  |  |  | MNTC [2]: 133 µg/mL
CCCCOP(=O)(Cc1ccccc1C)OCCCC [M, di-n-butyl 2-methylbenzylphosphonate] |  |  |  |  | 7.0 | 4 | 7.5 | 3 | 7.7 | 1 | 
Cc1ccccc1CP(=O)(OC(C)C)OC(C)C [L, diisopropyl 2-methylbenzylphosphonate] |  | 5 | 8.7 | 2 | 8.3 | 1 | 7.4 | 0 | 6.5 | 3 | Average survival time ([1]; po 5 × 250 mg/kg): 8.7 days; Survivors ([1]; po 5 × 250 mg/kg): 2
CCOP(=O)(Cc1ccccc1C)OCC [E, diethyl 2-methylbenzylphosphonate] |  |  |  |  |  |  |  |  |  |  | Average survival time [1, 3]: 7.0 days; Survivors [1, 3]: 2; Average survival time ([1]; po 9 × 3 mg/kg): 5.7 days; Survivors ([1]; po 9 × 3 mg/kg): 1; Average survival time ([1]; po 9 × 30 mg/kg): 7.5 days; Survivors ([1]; po 9 × 30 mg/kg): 3; Average survival time ([1]; sc 9 × 3 mg/kg): 6.3 days; Survivors ([1]; sc 9 × 3 mg/kg): 1; Average survival time ([1]; sc 9 × 10 mg/kg): 6.5 days; Survivors ([1]; sc 9 × 10 mg/kg): 3; Average survival time ([1]; sc 9 × 30 mg/kg): 6.7 days; Survivors ([1]; sc 9 × 30 mg/kg): 2
CCOP(=O)(Cc1ccccc1Br)OCC [C, diethyl 2-bromobenzylphosphonate] | 6.7 | 2 | 8.5 | 3 |  |  |  |  |  |  | Average survival time ([1]; po 5 × 250 mg/kg): 8.0 days; Survivors ([1]; po 5 × 250 mg/kg): 2

— patent publication US5242908A, “Use of benzylphosphonic acid derivatives for the treatment of diseases caused by viruses” (priority 1990, dated 1993)
